# Reference: patent US11937624B2, “Food composition” (INNOVAFOOD AB, priority 2011, dated 2024)
# Marks after values point to notes of the source that are not given here.
# Columns and labels:
# serum insulin = experiment: Postprandial serum insulin response to white wheat bread test meal with test drink (Example 1); type: in vivo, human
# Method: (§1) Four different beverages were tested by the inventors; one reference, one with only the amino acid mixture, one with only CrPic, and one combining the amino acid mixture with CrPic. The amino acids used were L-leucine, L-isoleucine, L-lysine, L-valine and L-threonine.
# (§2) The reference (“Ref”) drink was made out of tap water and aroma, poured into 330 mL bottles and carbonated with a Table Top Carbonator CF-121 (Omve) set at 10 g CO2/L.
# (§3) The beverage with CrPic (“CrPic”) was prepared by dissolving one thawed pellet of concentrated CrPic solution (4.0 grams) in 308.0 grams of carbonated tap water and thereafter 0.19 grams of aroma was added. Additional CO2 was added just before serving with a Soda Streamer to mimic the amount in the Ref drink.
# (§4) The beverage with amino acids (“5AA”) was prepared by dissolving 6.9 grams of the amino acid mixture in 305.1 grams of carbonated tap water and thereafter 0.19 grams of aroma was added. Additional CO2 was added just before serving with a Soda Streamer to mimic the amount in the Ref drink. See Table 7 for composition of amino acid mixture.
# (§5) The beverage with amino acids and CrPic (“5AA+CrPic”) was prepared by dissolving 6.9 grams of the amino acid mixture and one thawed pellet of concentrated CrPic solution (4 grams) in 301.1 grams of carbonated tap water and thereafter 0.19 grams of aroma was added. Additional CO2 was added just before serving with a Soda Streamer to mimic the amount in the Ref drink.
# (§6) The test meals consisted of sandwiches made of white wheat bread (Dollarfranska, Lockarps, Lockarp, Sweden), contributing with 50 grams of available starch, and the test drinks. The white wheat bread was spread with 10 grams of butter (Bregott, Arla, Stockholm, Sweden) and 24 grams of orange marmalade (kindly provided by Önos, Procordia Food, Eslöv). The sandwiches provided 9 grams of protein and an additional amount of carbohydrates from the marmalade and butter of 14 grams. A schematic overview of the composition of the different test meals is found in Table 2.
# (§7) Nineteen healthy subjects, 11 men and 8 women, aged 38-60 (51±1 years; mean±SEM) and with body mass indexes of 24-30 (27.3±0.3 kg/m2; mean±SEM) were included in the study. All subjects had normal fasting blood glucose levels (5.6±0.1 mmol/L, mean±SEM).
# (§8) The test subjects were instructed to eat a dinner of own choice (but with a low content of fiber) as well as an evening meal consisting of white wheat bread and a beverage, and to eat the same meals the evening before every test occasion. After the white wheat bread meal at around 9-10 p.m., the subjects were thereafter to restrain from ingesting anything but maximum a half glass of water on the morning of the test occasion.
# (§9) Upon arrival at the laboratory at 07:45 on the test day, the subjects were sat to rest before a fasting capillary blood sample was drawn. Immediately thereafter, the test meal was served and a digital timer was started. Together with the drinks, a […] sandwich meal was served, containing 64 g available carbohydrates, 9.1 g protein and 11.7 g fat. The subjects were instructed to finish the meal in 10-15 minutes and to alternate between eating and drinking. All meals were well tolerated, and the subjects had no problems finishing eating within the 10-15 min period.
# (§10) Capillary blood samples were taken at fasting and 15, 30, 45, 60, 90, 120 and 180 min after the ingestion of the meal for the analysis of blood glucose and serum insulin.
# (§11) Blood glucose was immediately analyzed in serum with the use of a B-glucose analyzer (Hemocue AB, Ängelholm, Sweden). Serum tubes were centrifuged for 5 min (3000 rpm) and serum was frozen at −18° C. for the measurement of insulin. The serum insulin measurement was performed on an integrated immunoassay analyzer (CODA open Microplate System, Bio-Rad Laboratories, Hercules, CA) by using an enzyme immunoassay kit (Mercodia Insulin ELISA, Mercodia AB, Uppsala, Sweden). […]
# blood glucose = experiment: Postprandial blood glucose response to white wheat bread test meal with test drink (Example 1); type: in vivo, human
# Method: as §1, §2, §3, §4, §5, §6, §7, §8, §9, §10, §11
# [1] = Table 5 comparison, 0-120 min, mean ± SEM, n=19 (5AA n=18)
# [2] = Table 5 comparison, vs Ref meal
# [3] = healthy subjects, carbonated water drink with sandwich meal, 0-60 min, mean ± SEM, n=19 (5AA n=18)
# [4] = healthy subjects, carbonated water drink with sandwich meal, 0-120 min, mean ± SEM, n=19 (5AA n=18)
# [5] = healthy subjects, carbonated water drink with sandwich meal, 0-180 min, mean ± SEM, n=19 (5AA n=18)
substance,measurement,setting,value
Chromium tripicolinate [CrPic],Change in insulin iAUC 0-60 min as a percentage of the reference meal,"serum insulin; 0-60 min, vs Ref meal",−12%
same,Change in insulin iAUC 0-120 min as a percentage of the reference meal,"serum insulin; 0-120 min, vs Ref meal",−10%
same,Change in insulin iAUC 0-180 min as a percentage of the reference meal,"serum insulin; 0-180 min, vs Ref meal",−11%
same,Insulin iAUC 0-120 min,serum insulin; [1],15.4 ± 1.9 nmol·min/L
same,Change (%) of insulin iAUC 0-120 min,serum insulin; [2],−10%
same,Insulin iAUC 0-60 min,serum insulin; [3],7.5 ± 0.9^a nmol · min/L
same,Insulin iAUC 0-120 min,serum insulin; [4],15.4 ± 1.9^a nmol · min/L
same,Insulin iAUC 0-180 min,serum insulin; [5],18.5 ± 2.6^b nmol · min/L
same,Change in glucose iAUC 0-60 min as a percentage of the reference meal,"blood glucose; 0-60 min, vs Ref meal",−13%
same,Change in glucose iAUC 0-120 min as a percentage of the reference meal,"blood glucose; 0-120 min, vs Ref meal",−6%
same,Change in glucose iAUC 0-180 min as a percentage of the reference meal,"blood glucose; 0-180 min, vs Ref meal",−4%
same,Glucose iAUC 0-120 min,blood glucose; [1],189 ± 20.7 mmol·min/L
same,Change (%) of glucose iAUC 0-120 min,blood glucose; [2],−6%
same,Blood glucose iAUC 0-60 min,blood glucose; [3],100.2 ± 9.3^ac mmol min/L
same,Blood glucose iAUC 0-120 min,blood glucose; [4],189.1 ± 20.7^ab mmol min/L
same,Blood glucose iAUC 0-180 min,blood glucose; [5],222.3 ± 25.6 mmol·min/L
